Measured values as given in ChEMBL document CHEMBL3627615, “Discovery of the disubstituted oxazole analogues as a novel class anti-tuberculotic agents against MDR- and XDR-MTB” (Bioorg Med Chem Lett, 2015).
Values after ≈ are worked out from the molar mass of the structure shown.

How the values were obtained:
[1] = test system: Mycobacterium tuberculosis; assay: Antimycobacterial activity against Mycobacterium tuberculosis H37Rv ATCC 27294 after 5 days by microplate alamar blue assay; assay type: functional; settings: H37Rv ATCC 27294, 120 h
[2] = test system: HEK293; assay: Cytotoxicity against human HEK293 cells after 36 hrs by MTT assay; assay type: cell-based; settings: HEK293, 36 h
[3] = test system: Staphylococcus aureus; assay: Antibacterial activity against Staphylococcus aureus by agar dilution method; assay type: functional
[4] = test system: Escherichia coli; assay: Antibacterial activity against Escherichia coli by agar dilution method; assay type: functional
[5] = test system: Klebsiella pneumoniae; assay: Antibacterial activity against Klebsiella pneumoniae by agar dilution method; assay type: functional
[6] = test system: Pseudomonas aeruginosa; assay: Antibacterial activity against Pseudomonas aeruginosa by agar dilution method; assay type: functional
[7] = test system: Proteus vulgaris; assay: Antibacterial activity against Proteus vulgaris by agar dilution method; assay type: functional
[8] = test system: Proteus mirabilis; assay: Antibacterial activity against Proteus mirabilis by agar dilution method; assay type: functional
[9] = test system: Serratia marcescens; assay: Antibacterial activity against Serratia marcescens by agar dilution method; assay type: functional
[10] = test system: Acinetobacter calcoaceticus; assay: Antibacterial activity against Acinetobacter calcoaceticus by agar dilution method; assay type: functional

Row | Structure (SMILES) | MIC90 [1] | IC50 [2] | further results
1 | COc1ccc(C(=O)C2CCN(Cc3coc(-c4ccc(F)cc4)n3)CC2)cc1OC | 8 mg/L (≈ 18.8 µM) | > 150 mg/L | 
2 | O=C(c1ccc2c(c1)OCCO2)C1CCN(Cc2coc(-c3ccc(F)cc3)n2)CC1 | 8 mg/L (≈ 18.9 µM) | > 150 mg/L | 
3 | O=C(c1ccc2c(c1)OCCO2)C1CCN(Cc2coc(-c3ccc(Cl)cc3)n2)CC1 | 2 mg/L (≈ 4.56 µM) | > 150 mg/L | MIC80 [3]: > 128 mg/L; MIC80 [4]: > 128 mg/L; MIC80 [5]: > 128 mg/L; MIC80 [6]: > 128 mg/L; MIC80 [7]: > 128 mg/L; MIC80 [8]: > 128 mg/L; MIC80 [9]: > 128 mg/L; MIC80 [10]: > 128 mg/L
4 | O=C(c1ccc2c(c1)OCCO2)C1CCN(Cc2coc(-c3ccc(Br)cc3)n2)CC1 | 8 mg/L (≈ 16.6 µM) | > 150 mg/L | 
5 | O=C(c1ccc2c(c1)OCCO2)C1CCN(Cc2coc(-c3ccccc3)n2)CC1 | 4 mg/L (≈ 9.89 µM) | > 150 mg/L | 
6 | O=C(c1ccc2c(c1)OCCO2)C1CCN(Cc2coc(-c3ccc(C(F)(F)F)cc3)n2)CC1 | 32 mg/L (≈ 67.7 µM) | > 150 mg/L | 
7 | O=C(c1ccc2c(c1)OCCO2)C1CCN(Cc2coc(-c3ccc(F)c(F)c3)n2)CC1 | 8 mg/L (≈ 18.2 µM) | > 150 mg/L | 
8 | O=C(c1ccc2c(c1)OCCO2)C1CCN(Cc2coc(-c3ccccc3F)n2)CC1 | 8 mg/L (≈ 18.9 µM) | > 150 mg/L | 
9 | O=C(c1ccc2c(c1)OCCO2)C1CCN(Cc2coc(-c3cccc(F)c3)n2)CC1 | 4 mg/L (≈ 9.47 µM) | > 150 mg/L | 
10 | COc1ccc(-c2nc(CN3CCC(C(=O)c4ccc5c(c4)OCCO5)CC3)co2)cc1 | 8 mg/L (≈ 18.4 µM) | > 150 mg/L | 
11 | Cc1ccc(-c2nc(CN3CCC(C(=O)c4ccc5c(c4)OCCO5)CC3)co2)cc1 | 64 mg/L (≈ 153 µM) | > 150 mg/L | 
12 | CC(C)(C)c1ccc(-c2nc(CN3CCC(C(=O)c4ccc5c(c4)OCCO5)CC3)co2)cc1 | 8 mg/L (≈ 17.4 µM) | > 150 mg/L | MIC80 [3]: > 128 mg/L; MIC80 [4]: > 128 mg/L; MIC80 [5]: > 128 mg/L; MIC80 [6]: > 128 mg/L; MIC80 [7]: > 128 mg/L; MIC80 [8]: > 128 mg/L; MIC80 [9]: > 128 mg/L; MIC80 [10]: > 128 mg/L
13 | O=C(c1ccc2c(c1)OCCO2)C1CCN(Cc2coc(-c3cccnc3)n2)CC1 | 32 mg/L (≈ 78.9 µM) | > 150 mg/L | 
14 | O=C(c1ccc2c(c1)OCCO2)C1CCN(Cc2coc(-c3ccco3)n2)CC1 | 16 mg/L (≈ 40.6 µM) | > 150 mg/L | 
15 | O=C(c1ccc2c(c1)OCCO2)C1CCN(Cc2coc(-c3ccoc3)n2)CC1 | 32 mg/L (≈ 81.1 µM) | > 150 mg/L | 
16 | O=C(c1ccc2c(c1)OCCO2)C1CCN(Cc2csc(-c3ccc(Cl)cc3)n2)CC1 | > 128 mg/L |  | 
17 | CC(C)(C)c1ccc(-c2nc(CN3CCC(C(=O)c4ccc5c(c4)OCCO5)CC3)cs2)cc1 | > 128 mg/L |  | 
18 | O=C(c1ccc2c(c1)OCCO2)C1CCN(Cc2cc(-c3ccc(F)cc3)on2)CC1 | > 128 mg/L |  | 
19 | O=C(c1ccc2c(c1)CCCC2)C1CCN(Cc2coc(-c3ccc(F)cc3)n2)CC1 | 1 mg/L (≈ 2.39 µM) | > 150 mg/L | MIC80 [3]: > 128 mg/L; MIC80 [4]: > 128 mg/L; MIC80 [5]: > 128 mg/L; MIC80 [6]: > 128 mg/L; MIC80 [7]: > 128 mg/L; MIC80 [8]: > 128 mg/L; MIC80 [9]: > 128 mg/L; MIC80 [10]: > 128 mg/L
20 | O=C(c1ccc(F)c(F)c1)C1CCN(Cc2coc(-c3ccc(F)cc3)n2)CC1 | 2 mg/L (≈ 5 µM) | > 150 mg/L | 
21 | O=C(c1ccccc1)C1CCN(Cc2coc(-c3ccc(F)cc3)n2)CC1 | 2 mg/L (≈ 5.49 µM) | > 150 mg/L | 
22 | Cc1ccc(C(=O)C2CCN(Cc3coc(-c4ccc(F)cc4)n3)CC2)cc1C | 8 mg/L (≈ 20.4 µM) | > 150 mg/L | 
23 | Cc1ccc(C(=O)C2CCN(Cc3coc(-c4ccc(F)cc4)n3)CC2)cc1 | 4 mg/L (≈ 10.6 µM) | > 150 mg/L | 
24 | COc1ccc(C(=O)C2CCN(Cc3coc(-c4ccc(F)cc4)n3)CC2)cc1 | 4 mg/L (≈ 10.1 µM) | > 150 mg/L | 
25 | CC(C)(C)c1ccc(-c2nc(CN3CCC(C(=O)c4ccc5c(c4)CCCC5)CC3)co2)cc1 | 8 mg/L (≈ 17.5 µM) | > 150 mg/L | 
26 | CC[C@@H](CO)NCCN[C@@H](CC)CO [ETHAMBUTOL] | < 0.5 mg/L |  | 
27 | NNC(=O)c1ccncc1 [ISONIAZID] | < 0.5 mg/L |  | 
28 | CO[C@H]1/C=C/O[C@@]2(C)Oc3c(C)c(O)c4c(O)c(c(/C=N/N5CCN(C)CC5)c(O)c4c3C2=O)NC(=O)/C(C)=C\C=C\[C@H](C)[C@H](O)[C@@H](C)[C@@H](O)[C@@H](C)[C@H](OC(C)=O)[C@@H]1C [RIFAMPIN] | < 0.5 mg/L |  | 
29 | CN[C@@H]1[C@H](O[C@H]2[C@H](O[C@H]3[C@H](O)[C@@H](O)[C@H](N=C(N)N)[C@@H](O)[C@@H]3N=C(N)N)O[C@@H](C)[C@]2(O)C=O)O[C@@H](CO)[C@H](O)[C@H]1O [STREPTOMYCIN] | < 0.5 mg/L |  | 
